Data reported in US8039455B2, “Macrocyclic compounds useful as BACE inhibitors” (Novartis AG, priority 2005, dated 2011).

Target: human BACE (Homo sapiens, UniProt P56817)
Assay: Test 1: Inhibition of Human BACE
Format: biochemical
From the text: Test 1: Inhibition of Human BACE

Sequence of human BACE (P56817 46-457 limits assumed): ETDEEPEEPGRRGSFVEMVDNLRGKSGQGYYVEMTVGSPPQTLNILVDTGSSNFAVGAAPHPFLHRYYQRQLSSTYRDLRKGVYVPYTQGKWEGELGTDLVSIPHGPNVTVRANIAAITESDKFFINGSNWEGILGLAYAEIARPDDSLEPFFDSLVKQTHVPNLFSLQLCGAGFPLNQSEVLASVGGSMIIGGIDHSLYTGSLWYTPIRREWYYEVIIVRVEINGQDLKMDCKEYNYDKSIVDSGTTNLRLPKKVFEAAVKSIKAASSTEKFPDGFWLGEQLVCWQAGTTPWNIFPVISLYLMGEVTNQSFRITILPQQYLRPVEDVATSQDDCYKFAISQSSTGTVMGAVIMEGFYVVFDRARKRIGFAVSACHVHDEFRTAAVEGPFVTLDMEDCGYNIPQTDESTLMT

IC50: 250 nM
SMILES: CC(=O)c1cc2cc(c1)C(=O)N[C@H]([C@H](O)CNC1(c3cccc(C(C)C)c3)CC1)Cc1cccc(c1)CCCCO2 [Example 5, (S)-18-Acetyl-4-{(R)-1-hydroxy-2-[1-(3-isopropyl-phenyl)-cyclopropylamino]-ethyl}-15-oxa-3-aza-tricyclo[14.3.1.1*6,10*]henicosa-1(20),6,8,10(21),16,18-hexaen-2-one]
